Measured values reported in patent US7582627B2, “3-aminoquinazolin-2,4-dione antibacterial agents” (Warner-Lambert Company, priority 2000, dated 2009).
Counter-ions that a name gives are not always drawn.

| melting point | Structure (SMILES) |
| --- | --- |
| > 250 °C | COC1CN(c2c(F)cc3c(=O)n(N)c(=O)n(C4CC4)c3c2C)CC1N.Cl (stereo not drawn) |
| 220 °C | Cc1c(N2CC3CCCNC3C2)c(F)cc2c(=O)n(N)c(=O)n(C3CC3)c12.Cl (stereo not drawn) |
| 178 to 180 °C | Cc1c(N2CCCC2)c(F)cc2c(=O)n(N)c(=O)n(C3CC3)c12.Cl |
| 237 to 240 °C | Cc1c(N2CCC(C)(N)C2)c(F)cc2c(=O)n(N)c(=O)n(C3CC3)c12.Cl (stereo not drawn) |
| 230 °C | COc1c(N2CC(C(C)N)C(C)(C)C2)c(F)cc2c(=O)n(N)c(=O)n(C3CC3)c12.Cl (stereo not drawn) |
| 210 to 215 °C | CCN[C@@H](C)[C@@H]1CCN(c2c(F)cc3c(=O)n(N)c(=O)n(C4CC4)c3c2C)C1.Cl |
| 167 °C | Cc1c(N2CC(CN)C3(CC3)C2)c(F)cc2c(=O)n(N)c(=O)n(C3CC3)c12.Cl (stereo not drawn) |
| 216 to 218 °C | COc1c(N2CCC(N)C2)c(F)cc2c(=O)n(N)c(=O)n(C3CC3)c12.Cl (stereo not drawn) |
| 117 to 120 °C | CC(C)(N)[C@@H]1CCN(c2c(F)cc3c(=O)n(N)c(=O)n(C4CC4)c3c2Cl)C1.Cl |
| 202 °C | COc1c(N2CCC(O)(CN)C2)c(F)cc2c(=O)n(N)c(=O)n(C3CC3)c12.Cl (stereo not drawn) |
| 178 to 180 °C | Cc1c(N2CC(C(C)N)C3(CC3)C2)c(F)cc2c(=O)n(N)c(=O)n(C3CC3)c12.Cl (stereo not drawn) |
| 204.5 °C | COc1c(N2CC(C)C(C(C)N)C2)c(F)cc2c(=O)n(N)c(=O)n(C3CC3)c12.Cl (stereo not drawn) |
| 219 to 221 °C | Cc1c(N2CCCC(CN)C2)c(F)cc2c(=O)n(N)c(=O)n(C3CC3)c12.Cl (stereo not drawn) |
| 277 °C | Cl.N#Cc1c(N2CCC(N)C2)c(F)cc2c(=O)n(N)c(=O)n(C3CC3)c12 (stereo not drawn) |
| 192 to 194 °C | Cc1c(N2CC[C@H]([C@H](C)N)C2)c(F)cc2c(=O)n(N)c(=O)n(C3CC3)c12.Cl |
| 190 to 192 °C | COc1c(N2CCC(F)(C(C)N)C2)c(F)cc2c(=O)n(N)c(=O)n(C3CC3)c12.Cl (stereo not drawn) |

| melting point | Structure (SMILES) |
| --- | --- |
| 82 to 84 °C | Cc1c(N2CCC(CN)C2)c(F)cc2c(=O)n(N)c(=O)n(C3CC3)c12.O=C(O)C(F)(F)F (stereo not drawn) |
| 198 °C | COc1c(N2CCCC(C(C)N)C2)c(F)cc2c(=O)n(N)c(=O)n(C3CC3)c12.Cl (stereo not drawn) |
| 228 to 230 °C | COc1c(N2CC[C@H]([C@@H](C)N)C2)c(F)cc2c(=O)n(N)c(=O)n(C3CC3)c12.Cl [Compound 133] |
| 164 to 166 °C | C[C@H](N)[C@@H]1CCN(c2c(F)cc3c(=O)n(N)c(=O)n(C4CC4)c3c2Cl)C1.Cl |
| > 250 °C | COc1c(N2CC3CCCCC3(CN)C2)c(F)cc2c(=O)n(N)c(=O)n(C3CC3)c12.Cl (stereo not drawn) |
| 180 to 182 °C | Cc1c(N2CC3C(N)C3C2)c(F)cc2c(=O)n(N)c(=O)n(C3CC3)c12.Cl (stereo not drawn) |
| 178 °C | COc1c(N2CC(CN)C3(CC3)C2)c(F)cc2c(=O)n(N)c(=O)n(C3CC3)c12.Cl (stereo not drawn) |
| 172 to 177 °C | COCC1(CN)CCN(c2c(F)cc3c(=O)n(N)c(=O)n(C4CC4)c3c2C)C1.Cl (stereo not drawn) |
| 153 to 155 °C | CN[C@@H](C)[C@@H]1CCN(c2c(F)cc3c(=O)n(N)c(=O)n(C4CC4)c3c2C)C1.Cl |
| 116 to 120 °C | Cc1c(N2CCC(C(C)(C)O)C2)c(F)cc2c(=O)n(N)c(=O)n(C3CC3)c12.Cl (stereo not drawn) |
| > 190 °C | COc1c(N2CC3C(N)CC3(C)C2)c(F)cc2c(=O)n(N)c(=O)n(C3CC3)c12.Cl (stereo not drawn) |
| 240 °C | Cc1c(N2CC(C)C(C(C)N)C2)c(F)cc2c(=O)n(N)c(=O)n(C3CC3)c12.Cl (stereo not drawn) |
| 200 °C | Cc1c(N2CCCC(CCN)C2)c(F)cc2c(=O)n(N)c(=O)n(C3CC3)c12.Cl (stereo not drawn) |
| 200 to 202 °C | Cc1c(N2CC[C@@H](C(C)(C)N)C2)c(F)cc2c(=O)n(N)c(=O)n(C3CC3)c12.Cl |
| 110 to 112 °C | Cc1c(N2CCC(N)C2)c(F)cc2c(=O)n(N)c(=O)n(C3CC3)c12.O=C(O)C(F)(F)F (stereo not drawn) |

The next lines start with the compound.

| Structure (SMILES) | melting point |
| --- | --- |
| NC1CCN(c2ccc3c(=O)n(N)c(=O)n(C4CC4)c3c2F)C1.O=C(O)C(F)(F)F (stereo not drawn) | 210 to 212 °C |
| CC(C)n1c(=O)n(N)c(=O)c2cc(F)c(N3CCC(N)C3)c(Cl)c21 (stereo not drawn) (as salt: trifluoroacetate) | 151 °C |
| N[C@H]1CCN(c2c(F)c(F)c3c(=O)n(N)c(=O)n(C4CC4)c3c2F)C1 (as salt: hydrochloride) [Compound 9, 3-Amino-7-((S)-3-aminopyrrolidin-1-yl)-1-cyclopropyl-5,6,8-trifluoro-1H-quinazoline-2,4-dione hydrochloride] | 271 °C (dec.) |
| COc1c(N2CCC(CN)CC2)c(F)cc2c(=O)n(N)c(=O)n(C3CC3)c12.Cl | 201 °C |
| COc1c(N2CCCC(CN)C2)c(F)cc2c(=O)n(N)c(=O)n(C3CC3)c12.Cl (stereo not drawn) | 201 °C |
| NC1CCN(c2c(Cl)cc3c(=O)n(N)c(=O)n(C4CC4)c3c2F)C1.O=C(O)C(F)(F)F (stereo not drawn) | 135 to 137 °C |
| COc1c(N2CCC(C(C)(C)O)C2)c(F)cc2c(=O)n(N)c(=O)n(C3CC3)c12.Cl (stereo not drawn) | 134 °C (dec.) |
| COc1c(N2C[C@@H](CN)[C@H](F)C2)c(F)cc2c(=O)n(N)c(=O)n(C3CC3)c12.Cl (relative stereo) | 144 to 147 °C |
| Cl.N[C@@H]1CN(c2c(F)cc3c(=O)n(N)c(=O)n(C4CC4)c3c2Cl)C[C@H]1c1ccc(O)cc1 (relative stereo) | > 200 °C |
| Cl.N[C@H]1CCN(c2cc3c(cc2F)c(=O)n(N)c(=O)n3C2CC2)C1 | > 250 °C |
| NC(=O)C1CCCN(c2c(F)cc3c(=O)n(N)c(=O)n(C4CC4)c3c2Cl)C1 (stereo not drawn) [Compound 58, 1-(3-Amino-8-chloro-1-cyclopropyl-6-fluoro-2,4-dioxo-1,2,3,4-tetrahydroquinazolin-7-yl)piperidine-3-carboxylic acid amide] | 141 to 144 °C |
| NC1C2CN(c3c(F)cc4c(=O)n(N)c(=O)n(C5CC5)c4c3Cl)CC12 (stereo not drawn) (as salt: hydrochloride) | 111 to 114 °C |
| Cl.NCCC1CCN(c2c(F)cc3c(=O)n(N)c(=O)n(C4CC4)c3c2Cl)C1 (stereo not drawn) | 158 to 160 °C |
| C[C@@H]1CN(c2c(F)cc3c(=O)n(N)c(=O)n(C4CC4)c3c2Cl)C[C@H]1CN.Cl (relative stereo) | 215 to 217 °C |
| Cl.N[C@@H]1CN(c2c(F)cc3c(=O)n(N)c(=O)n(C4CC4)c3c2Cl)C[C@H]1C(F)(F)F (relative stereo) | 181 to 183 °C |
| CCn1c(=O)n(N)c(=O)c2cc(F)c(N3CC[C@@H](C(C)(C)N)C3)cc21.Cl | > 250 °C |
| Cl.NC[C@@H]1CN(c2nc3c(cc2F)c(=O)n(N)c(=O)n3C2CC2)C[C@H]1C(F)(F)F (relative stereo) | 214 to 216 °C |
| COc1c(N2CCC(C(=O)O)C2)c(F)cc2c(=O)n(N)c(=O)n(C3CC3)c12.O=C(O)C(F)(F)F (stereo not drawn) | 252 °C (dec.) |
| CC1COc2c(N3CC[C@H](N)C3)c(F)cc3c(=O)n(N)c(=O)n1c23.Cl (stereo partly drawn) | 202 to 204 °C |

| Structure (SMILES) | melting point |
| --- | --- |
| Cl.Nn1c(=O)c2cc(F)c(N3CCC(N)(c4ccccc4)C3)c(Cl)c2n(C2CC2)c1=O (stereo not drawn) | 198 to 200 °C |
| COc1c(N2C[C@@H](CN)[C@H](C)C2)c(F)cc2c(=O)n(N)c(=O)n(C3CC3)c12.Cl (relative stereo) | 189 °C |
| Cl.NC1C2CN(c3nc4c(cc3F)c(=O)n(N)c(=O)n4C3CC3)CC12 (stereo not drawn) | 268 to 270 °C |
| COc1c(N2CC(N)C(F)C2)c(F)cc2c(=O)n(N)c(=O)n(C3CC3)c12.Cl (stereo not drawn) | > 250 °C |
| Cl.Nn1c(=O)c2cc(F)c(N3CC4CCNCC4C3)nc2n(C2CC2)c1=O (stereo not drawn) | 200 to 203 °C |
| COc1cc2c(=O)n(N)c(=O)n(C3CC3)c2c(F)c1N1CCC(N)C1.Cl (stereo not drawn) | 208 to 210 °C |
| CC1(CN)CCN(c2c(F)cc3c(=O)n(N)c(=O)n(C4CC4)c3c2Cl)C1 (stereo not drawn) (as salt: hydrochloride) [Compound 3, 3-Amino-7-[3-(aminomethyl)-3-methylpyrrolidin-1-yl]-8-chloro-1-cyclopropyl-6-fluoro-1H-quinazoline-2,4-dione hydrochloride] | 166 to 168 °C |
| Cl.Nn1c(=O)c2cc(F)c(N3CCC(CNCC(F)(F)F)C3)c(Cl)c2n(C2CC2)c1=O (stereo not drawn) | 163 to 164 °C |
| CN[C@H]1CCN(c2c(F)cc3c(=O)n(N)c(=O)n(C4CC4)c3c2Cl)C1 (as salt: hydrochloride) [Compound 5, 3-Amino-7-((S)-3-N-methylaminopyrrolidin-1-yl)-8-chloro-1-cyclopropyl-6-fluoro-1H-quinazoline-2,4-dione hydrochloride] | 118 to 120 °C |
| Cl.Nn1c(=O)c2cc(F)c(N3CCCC3)c(Cl)c2n(C2CC2)c1=O | 96 to 98 °C |
| CS(=O)(=O)NCC1CCN(c2c(F)cc3c(=O)n(N)c(=O)n(C4CC4)c3c2Cl)C1.Cl (stereo not drawn) | 109 to 112 °C |
| CS(=O)(=O)NCC1CCN(c2c(F)cc3c(=O)n(N)c(=O)n(C4CC4)c3c2Cl)C1 (stereo not drawn) [Compound 74, N-[1-(3-Amino-8-chloro-1-cyclopropyl-6-fluoro-2,4-dioxo-1,2,3,4-tetrahydroquinazolin-7-yl)pyrrolidin-3-ylmethyl]methanesulfonamide] | 109 to 112 °C |
| Cl.Nn1c(=O)c2cc(F)c(C3CCC4CNCC4N3)nc2n(C2CC2)c1=O (stereo not drawn) | 200 to 202 °C |
| Nn1c(=O)c2cc(F)c(N3CCC(=NO)C3)c(Cl)c2n(C2CC2)c1=O [Compound 65, 3-Amino-8-chloro-1-cyclopropyl-6-fluoro-7-(3-hydroxyimino-pyrrolidin-1-yl)-1H-quinazoline-2,4-dione] | 147 to 149 °C |
| Nn1c(=O)c2cc(F)c(N3CCC4(CCNC4)C3)c(Cl)c2n(C2CC2)c1=O (stereo not drawn) [Compound 62, 3-Amino-8-chloro-1-cyclopropyl-7-(2,7-diazaspiro[4.4]non-2-yl)-6-fluoro-1H-quinazoline-2,4-dione] | 147 to 149 °C |
| Cl.NCC1(Cc2ccccc2)CCN(c2c(F)cc3c(=O)n(N)c(=O)n(C4CC4)c3c2Cl)C1 (stereo not drawn) | 148 to 150 °C |
| CC1COc2c(N3CC[C@@H]([C@H](C)N)C3)c(F)cc3c(=O)n(N)c(=O)n1c23.Cl (stereo partly drawn) | 192 to 194 °C |
| COc1c(N2C[C@@H](CN)[C@@H](F)C2)c(F)cc2c(=O)n(N)c(=O)n(C3CC3)c12.Cl (relative stereo) | 169 to 179 °C |
| C[C@H](N)[C@@H]1CCN(c2nc3c(cc2F)c(=O)n(N)c(=O)n3C2CC2)C1.Cl | > 260 °C |
